Laboratory results: patent US20250084067A1, “PYRAZOLE-SUBSTITUTED CYCLOPENTANOL ESTER DERIVATIVE AND USE THEREOF” (CHIA TAI TIANQING PHARMACEUTICAL GROUP CO., LTD., priority 2022, published 2025)
Read-outs that look alike come from different tables or passages of the source.

Tests used:
CDK2 CycE1 kinase = CDK2 CycE1 kinase (Homo sapiens (Human), UniProt P24941); experiment: Determination of inhibitory activity against CDK2 CycE1 kinase; assay type: biochemical
Method: CDK2 CycE1 kinase solution (concentration: 0.015 ng/μL) was added to assay wells at 6 μL/well, and different compounds dissolved in DMSO were added to the assay wells separately using a nanoliter pipettor, such that the final concentrations of the compounds were 300 nM to 0.07 nM. The wells were set in duplicate, and a control well was set. After incubation of the above system for 30 min, ATP (concentration: 50 μM or 5000 μM) was mixed with ULight-Myelin Basic Protein Peptide substrate (manufacturer: PerkinElmer, concentration: […]) at a ratio of 1:1, and the mixture was added to the assay wells at 4 μL/well. The resulting mixture was left to react at room temperature for 2 h, and then 5 μL of EDTA was added to terminate the reaction, followed by addition of 5 μL of a detection antibody (manufacturer: PerkinElmer, concentration: 8 nM). The mixture was incubated at room temperature for 1 h.

CDK2/CycA2 kinase = CDK2/CycA2 kinase (Homo sapiens (Human), UniProt P24941); experiment: Determination of inhibitory activity against CDK2/CycA2 kinase; assay type: biochemical
Method: The wells were set in duplicate, and a control well was set. […] The resulting mixture was left to react at room temperature for 2 h, and then 5 µL of EDTA was added to terminate the reaction, followed by addition of 5 μL of a detection antibody (manufacturer: PerkinElmer, concentration: 8 nM). The mixture was incubated at room temperature for 1 h.

[1] = read-out: CDK2/CycE1 10 μM ATP (kinase) IC50
[2] = read-out: CDK2/CycA2 10 μM ATP (kinase) IC50

| SMILES | IC50 (CDK2 CycE1 kinase; 10 μM ATP) | IC50 (CDK2/CycA2 kinase; 10 μM ATP) | IC50 (CDK2 CycE1 kinase; [1]) | IC50 (CDK2/CycA2 kinase; [2]) |
| --- | --- | --- | --- | --- |
| CC(C)NC(=O)O[C@@H]1CC[C@H](c2cc(Nc3ccc(N(C)S(C)(=O)=O)cn3)n[nH]2)C1 [Example 2] | 10 to 50 nM | 10 to 50 nM |  |  |
| CC(=O)N(C)c1ccc(Nc2cc([C@H]3CC[C@@H](OC(=O)NC(C)C)C3)[nH]n2)nc1 [Example 4] | 10 to 50 nM | 10 to 50 nM |  |  |
| COCCN(C=O)c1ccc(Nc2cc(C3CCC(OC(=O)NC(C)C)C3)[nH]n2)nc1 (stereo not drawn) [Example 12] | 10 to 50 nM | 10 to 50 nM |  |  |
| COCc1ccc(Nc2cc(C3CCC(OC(=O)NC(C)C)C3)[nH]n2)nc1 (stereo not drawn) [Example 18] | 10 to 50 nM | 10 to 50 nM |  |  |
| COCCNc1ccc(Nc2cc(C3CCC(OC(=O)NC(C)C)C3)[nH]n2)nc1 (stereo not drawn) [Example 20] | 10 to 50 nM | 10 to 50 nM |  |  |
| CC(C)NC(=O)OC1CCC(c2cc(NC3CCN(S(C)(=O)=O)CC3)n[nH]2)C1 (stereo not drawn) [Example 22] | 10 to 50 nM | 10 to 50 nM |  |  |
| CC(C)NC(=O)O[C@@H]1CC[C@H](c2cc(Nc3cc(OC(F)(F)F)c(NS(C)(=O)=O)cn3)n[nH]2)C1 [Example 31] |  |  | < 10 nM | < 10 nM |
| CC(C)NC(=O)O[C@@H]1CC[C@H](c2cc(Nc3ccc(S(N)(=O)=O)c(F)c3)n[nH]2)C1 [Example 33] | < 10 nM | < 10 nM |  |  |
| CC(C)NC(=O)O[C@H]1CC[C@@H](c2cc(Nc3ccc(S(N)(=O)=O)cc3F)n[nH]2)C1 [Example 34] | < 10 nM | < 10 nM |  |  |
| CC(C)NC(=O)O[C@@H]1CC[C@H](c2cc(Nc3ccc(N4CCCC4=O)c(F)c3)n[nH]2)C1 [Example 35] | < 10 nM | < 10 nM |  |  |
| CC(C)NC(=O)O[C@@H]1CC[C@H](c2cc(Nc3ccc(-c4cnco4)cn3)n[nH]2)C1 [Example 36] | < 10 nM | 10 to 50 nM |  |  |
| CC(C)NC(=O)O[C@@H]1CC[C@H](c2cc(Nc3ccc(NS(C)(=O)=O)c(F)c3F)n[nH]2)C1 [Example 37] | < 10 nM | < 10 nM |  |  |
| CC(C)NC(=O)O[C@@H]1CC[C@H](c2cc(Nc3ccc4c(c3)OCO4)n[nH]2)C1 [Example 39] | < 10 nM | < 10 nM |  |  |
| CC(C)NC(=O)O[C@@H]1CC[C@H](c2cc(Nc3ccc(NS(C)(=O)=O)c(Cl)c3)n[nH]2)C1 [Example 40] | < 10 nM | < 10 nM |  |  |
| CC(C)NC(=O)O[C@@H]1CC[C@H](c2cc(Nc3ccc(P(C)(C)=O)cc3)n[nH]2)C1 [Example 41] | 10 to 50 nM | 10 to 50 nM |  |  |
| CC(C)NC(=O)O[C@@H]1CC[C@H](c2cc(Nc3ccc4c(c3)CC(=O)N4)n[nH]2)C1 [Example 42] | < 10 nM | < 10 nM |  |  |
| CC(C)NC(=O)O[C@@H]1CC[C@H](c2cc(Nc3ccc4c(c3)CS(=O)(=O)N4)n[nH]2)C1 [Example 43] |  |  | < 10 nM | < 10 nM |
| COc1nc(Nc2cc([C@H]3CC[C@@H](OC(=O)NC(C)C)C3)[nH]n2)ccc1NS(C)(=O)=O [Example 45] | < 10 nM | < 10 nM |  |  |
| CC(C)NC(=O)O[C@@H]1CC[C@H](c2cc(Nc3ccc(C(N)=O)cc3)n[nH]2)C1 [Example 46] | < 10 nM | < 10 nM |  |  |
| CC(C)NC(=O)O[C@@H]1CC[C@H](c2cc(Nc3ccc(NS(C)(=O)=O)c(OC(F)(F)F)c3)n[nH]2)C1 [Example 47] | < 10 nM | < 10 nM |  |  |
| CC1(NC(=O)O[C@@H]2CC[C@H](c3cc(Nc4ccc5c(c4)CS(=O)(=O)C5)n[nH]3)C2)CC1 [Example 48] | < 10 nM | < 10 nM |  |  |
| CC(C)NC(=O)O[C@H]1CC[C@@H](c2cc(Nc3ccc(NS(C)(=O)=O)c(C(F)(F)F)c3)n[nH]2)C1 [Example 50] | < 10 nM | < 10 nM |  |  |
| CC(C)NC(=O)O[C@@H]1CC[C@H](c2cc(Nc3ccc4c(c3)CCN4S(C)(=O)=O)n[nH]2)C1 [Example 51] | < 10 nM | 10 to 50 nM |  |  |

Further lines, with some results ahead:

| IC50 (CDK2 CycE1 kinase; 10 μM ATP) | IC50 (CDK2/CycA2 kinase; 10 μM ATP) | SMILES | IC50 (CDK2 CycE1 kinase; [1]) | IC50 (CDK2/CycA2 kinase; [2]) |
| --- | --- | --- | --- | --- |
| < 10 nM | < 10 nM | CC(C)NC(=O)O[C@@H]1CC[C@H](c2cc(Nc3ccc(NS(C)(=O)=O)cn3)n[nH]2)C1 [Example 1] |  |  |
| < 10 nM | < 10 nM | CC(C)NC(=O)O[C@@H]1CC[C@H](c2cc(Nc3ccc(NS(C)(=O)=O)cc3F)n[nH]2)C1 [Example 3] |  |  |
| < 10 nM | < 10 nM | CC(C)NC(=O)O[C@@H]1CC[C@H](c2cc(Nc3ccc(NC=O)cn3)n[nH]2)C1 [Example 5] |  |  |
| < 10 nM | < 10 nM | CC(=O)Nc1ccc(Nc2cc([C@H]3CC[C@@H](OC(=O)NC(C)C)C3)[nH]n2)nc1 [Example 6] |  |  |
| < 10 nM | < 10 nM | CC(C)NC(=O)O[C@@H]1CC[C@H](c2cc(Nc3ccc(NS(C)(=O)=O)cc3)n[nH]2)C1 [Example 7] |  |  |
| < 10 nM | < 10 nM | CC(C)NC(=O)O[C@@H]1CC[C@H](c2cc(Nc3ccc(NS(=O)(=O)C4CC4)cn3)n[nH]2)C1 [Example 8] |  |  |
| < 10 nM | 10 to 50 nM | COc1ccc(Nc2cc([C@H]3CC[C@@H](OC(=O)NC(C)C)C3)[nH]n2)nc1 [Example 9] |  |  |
| < 10 nM | 10 to 50 nM | CC(C)NC(=O)O[C@@H]1CC[C@H](c2cc(Nc3ccc(CN(C)C)cc3F)n[nH]2)C1 [Example 10] |  |  |
| < 10 nM | < 10 nM | CC(C)NC(=O)O[C@@H]1CC[C@H](c2cc(Nc3ccc(NS(C)(=O)=O)c(C(F)(F)F)n3)n[nH]2)C1 [Example 11] |  |  |
| < 10 nM | < 10 nM | CC(C)NC(=O)O[C@@H]1CC[C@H](c2cc(Nc3ccc(N4CCCC4=O)cn3)n[nH]2)C1 [Example 14] |  |  |
| < 10 nM | < 10 nM | CC(C)NC(=O)O[C@@H]1CC[C@H](c2cc(Nc3ccc(NS(C)(=O)=O)nc3)n[nH]2)C1 [Example 15] |  |  |
| < 10 nM | < 10 nM | CNS(=O)(=O)c1ccc(Nc2cc(C3CCC(OC(=O)NC(C)C)C3)[nH]n2)c(F)c1 (stereo not drawn) [Example 16] |  |  |
| < 10 nM | 10 to 50 nM | CC(C)NC(=O)OC1CCC(c2cc(Nc3ncc(NS(C)(=O)=O)cn3)n[nH]2)C1 (stereo not drawn) [Example 19] |  |  |
| < 10 nM | < 10 nM | CC(C)NC(=O)OC1CCC(c2cc(Nc3ccc4c(n3)OCC4)n[nH]2)C1 (stereo not drawn) [Example 21] |  |  |
| < 10 nM | < 10 nM | CC(C)NC(=O)O[C@@H]1CC[C@H](c2cc(Nc3ccc(NS(C)(=O)=O)c(F)c3)n[nH]2)C1 [Example 23] |  |  |
| < 10 nM | < 10 nM | CC(C)NC(=O)O[C@@H]1CC[C@H](c2cc(Nc3ccc(NS(C)(=O)=O)c(F)n3)n[nH]2)C1 [Example 24] |  |  |
| < 10 nM | < 10 nM | CC(C)NC(=O)O[C@@H]1CC[C@H](c2cc(Nc3ccc(S(N)(=O)=O)cc3F)n[nH]2)C1 [Example 25] |  |  |
| < 10 nM | < 10 nM | CC(C)NC(=O)O[C@@H]1CC[C@H](c2cc(Nc3ccc(NS(C)(=O)=O)c(C(F)(F)F)c3)n[nH]2)C1 [Example 27] |  |  |
| < 10 nM | < 10 nM | CC(C)NC(=O)O[C@@H]1CC[C@H](c2cc(Nc3ccc(N4CCCS4(=O)=O)cn3)n[nH]2)C1 [Example 28] |  |  |
| < 10 nM | < 10 nM | CC(C)NC(=O)O[C@@H]1CC[C@H](c2cc(Nc3ccc(NS(C)(=O)=O)c(OC(F)(F)F)n3)n[nH]2)C1 [Example 29] |  |  |
| < 10 nM | < 10 nM | CC(C)NC(=O)O[C@@H]1CC[C@H](c2cc(Nc3ccc(NS(C)(=O)=O)c(Cl)n3)n[nH]2)C1 [Example 30] |  |  |
| < 10 nM | < 10 nM | CC(C)NC(=O)O[C@@H]1CC[C@H](c2cc(Nc3cc(F)c(NS(C)(=O)=O)cc3F)n[nH]2)C1 [Example 32] |  |  |
